Here are results for 26 compounds from ChEMBL document CHEMBL1156836, “4-Aryl-4-oxo-N-phenyl-2-aminylbutyramides as acetyl- and butyrylcholinesterase inhibitors. Preparation, anticholinesterase activity, docking study, and 3D structure-activity relationship based on molecular interaction fields” (Bioorg Med Chem, 2010).

Broadly, the IC50 is the concentration that inhibits the measured activity by half. The inhibition is the change of the read-out against control, counted positive when it falls. As usually defined, the Ki is the equilibrium dissociation constant of an inhibitor or competing ligand from its target.

The source made the active and inactive calls. No cut-off for these calls is given here.

Experiment [1] deals with T1, Acetylcholinesterase (Electrophorus electricus, UniProt O42275).
T1 sequence (O42275 whole entry): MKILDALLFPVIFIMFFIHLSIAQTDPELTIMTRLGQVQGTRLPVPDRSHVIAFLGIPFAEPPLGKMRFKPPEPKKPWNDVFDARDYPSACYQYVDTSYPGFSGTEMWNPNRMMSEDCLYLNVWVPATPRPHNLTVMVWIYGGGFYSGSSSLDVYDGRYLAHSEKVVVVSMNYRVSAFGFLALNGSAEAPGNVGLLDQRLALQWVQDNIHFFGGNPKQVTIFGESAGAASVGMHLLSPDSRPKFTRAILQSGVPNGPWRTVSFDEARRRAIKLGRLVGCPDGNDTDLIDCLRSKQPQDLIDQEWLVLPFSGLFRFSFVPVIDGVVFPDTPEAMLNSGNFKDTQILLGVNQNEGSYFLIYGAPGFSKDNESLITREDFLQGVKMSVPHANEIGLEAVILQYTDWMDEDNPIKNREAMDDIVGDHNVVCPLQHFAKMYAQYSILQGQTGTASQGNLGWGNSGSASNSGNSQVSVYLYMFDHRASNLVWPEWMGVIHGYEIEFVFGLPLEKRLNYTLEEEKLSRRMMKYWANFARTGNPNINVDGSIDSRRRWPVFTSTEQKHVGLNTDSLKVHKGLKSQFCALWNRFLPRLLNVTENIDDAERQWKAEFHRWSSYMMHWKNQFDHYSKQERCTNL
Description: (§1) Inhibition of electric eel AChE by Ellman's method
In experiment [2] the target is T2, Cholinesterase (Equus caballus, UniProt P81908).
T2 sequence (P81908 whole entry): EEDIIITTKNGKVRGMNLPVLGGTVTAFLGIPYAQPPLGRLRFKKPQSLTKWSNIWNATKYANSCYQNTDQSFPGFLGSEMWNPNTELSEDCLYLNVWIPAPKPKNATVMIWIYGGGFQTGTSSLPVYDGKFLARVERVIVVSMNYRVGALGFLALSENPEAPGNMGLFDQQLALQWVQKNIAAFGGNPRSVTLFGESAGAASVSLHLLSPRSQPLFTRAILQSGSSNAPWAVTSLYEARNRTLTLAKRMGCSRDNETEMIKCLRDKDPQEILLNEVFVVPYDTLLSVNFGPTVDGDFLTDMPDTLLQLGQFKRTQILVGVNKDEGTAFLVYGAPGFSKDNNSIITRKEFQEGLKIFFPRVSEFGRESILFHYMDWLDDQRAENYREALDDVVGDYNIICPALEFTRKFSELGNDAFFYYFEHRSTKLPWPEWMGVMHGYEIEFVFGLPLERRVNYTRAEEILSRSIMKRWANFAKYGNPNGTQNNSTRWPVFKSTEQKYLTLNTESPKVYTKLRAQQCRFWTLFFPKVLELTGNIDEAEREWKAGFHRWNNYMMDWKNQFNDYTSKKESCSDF
Description: (§2) Inhibition of horse serum BChE by Ellman's method
In experiment [3] the target is Cholinesterase (Equus caballus) (UniProt P81908). The experiment in a line: Inhibition of horse serum BChE at 100 uM by Ellman's method. (In general: Ellman's reagent forms a yellow product with free thiols.)
Cholinesterase (Equus caballus), sequence (P81908 whole entry): as above
For experiment [4], the target named is T1, Acetylcholinesterase. The source holds these as a separate data set.
Description: as §1
The target of experiment [5] is T2, Cholinesterase. The source holds these as a separate data set.
Description: as §2
For experiment [6], the target named is Acetylcholinesterase (Electrophorus electricus) (UniProt O42275). The experiment in a line: Mixed type inhibition of electric eel AChE by Ellman's method.
Acetylcholinesterase (Electrophorus electricus), sequence (O42275 24-633 limits assumed): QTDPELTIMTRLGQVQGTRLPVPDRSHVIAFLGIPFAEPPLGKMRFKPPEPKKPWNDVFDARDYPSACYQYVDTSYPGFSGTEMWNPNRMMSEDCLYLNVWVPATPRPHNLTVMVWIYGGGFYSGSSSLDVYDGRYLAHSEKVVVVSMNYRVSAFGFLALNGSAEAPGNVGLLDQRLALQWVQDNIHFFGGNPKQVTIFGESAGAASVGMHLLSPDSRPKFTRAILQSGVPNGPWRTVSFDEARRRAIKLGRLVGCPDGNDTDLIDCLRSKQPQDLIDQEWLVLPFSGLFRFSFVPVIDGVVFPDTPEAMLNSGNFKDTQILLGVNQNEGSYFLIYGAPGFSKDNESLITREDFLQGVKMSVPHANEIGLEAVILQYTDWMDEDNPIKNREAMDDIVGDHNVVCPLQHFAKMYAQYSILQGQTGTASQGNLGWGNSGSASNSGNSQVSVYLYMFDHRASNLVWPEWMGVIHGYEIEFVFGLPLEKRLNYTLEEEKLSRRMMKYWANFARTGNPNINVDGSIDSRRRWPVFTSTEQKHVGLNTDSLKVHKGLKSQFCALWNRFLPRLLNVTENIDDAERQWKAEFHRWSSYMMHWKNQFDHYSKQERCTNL
The target of experiment [7] is Cholinesterase (Equus caballus) (UniProt P81908). The experiment is described as follows: Mixed type inhibition of horse serum BChE by Ellman's method.
Experiment [8] shares this target. The experiment in a line: Inhibition of horse serum BChE at 40 uM by Ellman's method.
Experiment [9] shares this target. The experiment in a line: Inhibition of horse serum BChE at 15 uM by Ellman's method.
The target of experiment [10] is Acetylcholinesterase (Electrophorus electricus) (UniProt O42275). The experiment is described as follows: Inhibition of electric eel AChE at 100 uM by Ellman's method.
For experiment [11], the target named is T2, Cholinesterase. The experiment in a line: Inhibition of horse serum BChE by Lineweaver-Burke plot.
The target in experiment [12] is Cholinesterase (Equus caballus) (UniProt P81908). The experiment is described as follows: Inhibition of horse serum BChE at 70 uM by Ellman's method.
The target is the same in experiment [13]. The experiment in a line: Inhibition of horse serum BChE at 30 uM by Ellman's method.

With `CC(C)c1ccc(C(=O)CC(NCCCCCCCCNC(CC(=O)c2ccc(C(C)C)cc2C(C)C)C(=O)Nc2ccccc2)C(=O)Nc2ccccc2)c(C(C)C)c1` (mixture of isomers), the IC50 result in experiment [1] and in [2] was “ND(Insoluble)” throughout. `O=C(CC(NCCCCCCCCNC(CC(=O)c1ccc(Cl)cc1)C(=O)Nc1ccccc1)C(=O)Nc1ccccc1)c1ccc(Cl)cc1` (mixture of isomers): the half-maximal inhibitory concentration (IC50) entry in experiment [1] and in experiment [2] was “ND(Insoluble)” each time.

Turning to `COc1ccc(C(=O)CC(NCCCCCCCCNC(CC(=O)c2ccc(OC)cc2)C(=O)Nc2ccccc2)C(=O)Nc2ccccc2)cc1` (mixture of isomers), the IC50 result in experiment [1] and in experiment [2] was “ND(Insoluble)” each time. For `Cc1ccc(C)c(C(=O)CC(NCCCCCCCCNC(CC(=O)c2cc(C)ccc2C)C(=O)Nc2ccccc2)C(=O)Nc2ccccc2)c1` (mixture of isomers), the IC50 entry in experiment [1] and in experiment [2] was “ND(Insoluble)” each time. Consider `CC(C)c1ccc(C(=O)CC(NCCCCCCCCNC(CC(=O)c2ccc(C(C)C)cc2)C(=O)Nc2ccccc2)C(=O)Nc2ccccc2)cc1` (mixture of isomers), for which the IC50 entry in experiment [1] and in [2] was “ND(Insoluble)” throughout. Regarding `O=C(CC(NCCCCCCCCNC(CC(=O)c1ccc2c(c1)CCCC2)C(=O)Nc1ccccc1)C(=O)Nc1ccccc1)c1ccc2c(c1)CCCC2` (mixture of isomers), the IC50 entry in [1] and in experiment [2] was “ND(Insoluble)” in each case. On to `O=C(CC(C(=O)Nc1ccccc1)N1CCOCC1)c1ccccc1` (racemic), for which, in experiment [3], the inhibition turned out to be 21.6%. This compound returned an IC50 in [4] of over 100 µM. Take `Cc1ccc(C)c(C(=O)CC(C(=O)Nc2ccccc2)N2CCCCC2)c1` (racemic): the IC50 in [4] was over 10 µM; in experiment [5], 17.2 µM. The corresponding values for `COc1ccc(C(=O)CC(C(=O)Nc2ccccc2)n2ccnc2)cc1` (racemic) are 7.85 µM and 30.4 µM. With `CC(C)c1ccc(C(=O)CC(C(=O)Nc2ccccc2)n2ccnc2)c(C(C)C)c1` (racemic), the inhibition result in [6] and in experiment [7] was “Active” in each case. In [5], the IC50 is over 20 µM. As to `O=C(CC(C(=O)Nc1ccccc1)n1ccnc1)c1ccc2c(c1)CCCC2` (racemic), in experiment [8], the inhibition turned out to be 17%. As for `O=C(CC(C(=O)Nc1ccccc1)N1CCCCC1)c1ccc(Cl)cc1` (racemic), the IC50 entry in [1] and in experiment [2] was “ND(Insoluble)” each time.

Compound `CC(C)c1ccc(C(=O)CC(C(=O)Nc2ccccc2)N2CCCCC2)cc1` (racemic) gave an IC50 in experiment [5] of 7.06 µM.

`O=C(CC(C(=O)Nc1ccccc1)N1CCCCC1)c1ccc2c(c1)CCCC2` (racemic) returned an inhibition in experiment [9] of 21.5%. Take `Cc1ccc(C)c(C(=O)CC(C(=O)Nc2ccccc2)N2CCOCC2)c1` (racemic): the IC50 in experiment [4] is over 100 µM; in [5], 34.1 µM.

`O=C(CC(C(=O)Nc1ccccc1)N1CCOCC1)c1ccc(Cl)cc1` (racemic): the IC50 result in [1] and in experiment [2] was “ND(Insoluble)” in each case.

In turn, `COc1ccc(C(=O)CC(C(=O)Nc2ccccc2)N2CCOCC2)cc1` (racemic) returned an inhibition in [10] of 38.7%. For the same compound, the IC50 in experiment [5] was over 100 µM. Compound `CC(C)c1ccc(C(=O)CC(C(=O)Nc2ccccc2)N2CCOCC2)cc1` (racemic) yielded an inhibition in experiment [8] of 27.2%. In addition, the IC50 in [4] is over 100 µM. As for `CC(C)c1ccc(C(=O)CC(C(=O)Nc2ccccc2)N2CCOCC2)c(C(C)C)c1` (racemic), the inhibition entry in experiment [6] and in [7] was “Active” in each case. The affinity in [11], expressed as Ki, was 3.18 µM. In [5], this compound displayed a concentration for half-maximal inhibition (IC50) of 2.48 µM. In experiment [12], `Cc1ccc(C)c(C(=O)CC(C(=O)Nc2ccccc2)n2ccnc2)c1` (racemic) had an inhibition of 42%. In experiment [4], 27.9 µM corresponded to half-maximal inhibition (IC50).

Take `CC(C)c1ccc(C(=O)CC(C(=O)Nc2ccccc2)N2CCCCC2)c(C(C)C)c1` (racemic): in experiment [9], the inhibition amounted to 39.9%. `O=C(CC(C(=O)Nc1ccccc1)N1CCOCC1)c1ccc2c(c1)CCCC2` (racemic) came in with an inhibition in [8] of 13%. The same compound displayed an IC50 in experiment [4] of over 30 µM.

Take `CC(C)c1ccc(C(=O)CC(C(=O)Nc2ccccc2)n2ccnc2)cc1` (racemic): the inhibition in experiment [13] amounted to 10%. Consider `COc1ccc(C(=O)CC(C(=O)Nc2ccccc2)N2CCCCC2)cc1` (racemic), for which the half-maximal inhibitory concentration (IC50) in experiment [4] was over 10 µM; in [5], over 40 µM.

In experiment [3], `O=C(CC(C(=O)Nc1ccccc1)N1CCCCC1)c1ccccc1` (racemic) registered an inhibition of 34.8%. The IC50 in [4] is over 100 µM.

As for `O=C(CC(C(=O)Nc1ccccc1)n1ccnc1)c1ccc(Cl)cc1` (racemic), the IC50 entry in experiment [1] and in experiment [2] was “ND(Insoluble)” throughout.
